# Assay results taken from US4863932A, “Squalene oxide cyclase inhibitors and therapeutic use thereof” (Somatogenetics International, Inc., priority 1988, dated 1989).
# How the values were obtained:
# [1] = system: LDL receptor of HepG2 cells; experiment: Effect on the LDL receptor of HepG2 cells (125I-LDL binding, internalization, degradation); format: cell-based; settings: for 125I-LDL Binding / 125I-LDL Internal / 125I-LDL Degradation: HepG2 cells; for 125I-LDL Binding: untreated 57 ± 3; for 125I-LDL Internal: untreated 374 ± 9; for 125I-LDL Degradation: untreated 701 ± 38; for LDL BINDING: ± SEM
# Description: We have compared LA-I-140 and LN-I-83 with the conventional squalene oxide cyclase inhibitors U18666A and TMD by studying their effect on the LDL receptor of HepG2 cells.
# The assay is essentially as described by Goldstein, Basu and Brown (Methods in Enzymology, 98: 241-260, 1983). Briefly, confluent cultures of HepG2 cells are incubated for 24 hours in cholesterol-free medium to induce LDL receptors. Test compounds are added to the medium at appropriate concenrations during this incubation. At the end of 24 hours [^125 I]labeled LDL (200-400 cpm/ng) is added to the medium (10-50 ug LDL protein/ml) and the cells are incubated at 37° C. for 3-6 hours.
# (a) Degradation of ^125 I-LDL: The culture medium is removed from the monolayer of cells and undegraded LDL is precipitated with 10% (w/v) trichloroacetic acid.
# The supernatant fraction is treated with 5% (w/v) silver nitrate to precipitate any free iodine. The radioactivity in the final supernatant fraction, which represents monoiodotyrosine, the proteolytic degradation product of ^125 I-LDL, is measured in a gamma counter.
# (b) Specific binding of ^125 I-LDL: The cell monolayers are washed in a cold room (4° C.) three times rapidly with ice-cold buffer B (150 mM NaCl, 50 mM TrisHCl, pH 7.4 and 2 mg/ml bovine serum albumin). Each monolayer is incubated in buffer B for 10 minutes followed by one wash with buffer C (buffer B with bovine serum albumin omitted). Receptor-boundLDL is then released form cell surface by adding buffer D (50 mM NaCl, 10 mM HEPES, pH 7.4, 4 mg/ml dextran sulfate) and incubating at 4° C for 60 minutes on a rotary shaker (60 rotations per minute). An aliquot of buffer D is counted to determine the amount of ^125 I-LDL released from cell surface.
# Internalization of ^125 I-LDL: After removal of buffer D, the cell monolayers are dissolved in 0.1 N NaOH by incubation overnight at 37° C. in a humidified incubator. The alkaline digest is briefly homogenized with the aid of a sonicator and aliquots are withdrawn for the determination of internalized radioactivity and for measurement of cell protein. All values are normalized for 1 mg of cell protein. The results are shown n Table 1 below:
# In the case of PCR-II-23 and PCR-II-8B, we have examined their binding to the LDL receptors both when administered alone and in the presence of "down" regulators of this receptor (Table 2).
# squalene oxide cyclase [2] = experiment: SOC inhibition in in vivo experiments
# squalene oxide cyclase [3] = molecular target: T1, squalene oxide cyclase (Rattus norvegicus, UniProt P48450); experiment: biochemical; format: biochemical; design: Using a rat liver microsomal squalene oxide cyclase assay; from tissue; host or cells: rat liver microsomes / homogenate; settings: for IC50: 40 uM [3H]-oxidosqualene, pH 7.5, anaerobic, 1 hour, 37° C, read-out: I50 (dosage needed to suppress half the SOC activity); for effectiveness as SOC inhibitor relative to TMD: ratio of I50 values, TMD as reference
# T1 sequence (P48450 1-733): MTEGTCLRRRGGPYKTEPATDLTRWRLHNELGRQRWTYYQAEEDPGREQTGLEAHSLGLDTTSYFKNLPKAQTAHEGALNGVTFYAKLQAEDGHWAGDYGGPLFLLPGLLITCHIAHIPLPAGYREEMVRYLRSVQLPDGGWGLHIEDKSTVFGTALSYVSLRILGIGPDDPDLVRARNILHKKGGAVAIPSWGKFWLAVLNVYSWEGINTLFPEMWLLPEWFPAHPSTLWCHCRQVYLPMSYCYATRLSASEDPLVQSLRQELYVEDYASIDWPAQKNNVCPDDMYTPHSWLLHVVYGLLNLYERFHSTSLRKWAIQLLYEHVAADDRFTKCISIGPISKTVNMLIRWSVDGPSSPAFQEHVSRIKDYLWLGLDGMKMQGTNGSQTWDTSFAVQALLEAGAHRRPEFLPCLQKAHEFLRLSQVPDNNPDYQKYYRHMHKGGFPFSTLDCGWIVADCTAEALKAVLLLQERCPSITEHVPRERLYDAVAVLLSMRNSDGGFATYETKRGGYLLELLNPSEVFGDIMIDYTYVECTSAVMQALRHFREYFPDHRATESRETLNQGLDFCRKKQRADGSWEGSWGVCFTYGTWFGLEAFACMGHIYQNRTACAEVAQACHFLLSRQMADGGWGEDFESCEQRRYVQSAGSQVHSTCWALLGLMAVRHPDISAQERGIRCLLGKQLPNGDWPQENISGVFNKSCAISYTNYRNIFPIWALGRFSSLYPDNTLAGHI
# Description: Using a rat liver microsomal squalene oxide cyclase assay, we have determined the dose at which these drugs and TMD reduce squalene oxide cyclase activity to one-half its normal value. Rat liver microsomes ([…] -rat liver homogenate) were prepared by the method of Popjak, G (Methods in Enzymology, 1969 XV, 393-545). The reaction mixture contained [^3 H]-(S)-[…] (40 uM final), Tween-80 (0.15% w/v final), 0.1 M potassium phosphate, pH 7.5, and inhibitor of varying concentration all in 0.8 ml. The reaction was initiated by the addition of 0.2 ml of the SIO homogenate. The reaction was flushed with N2 and incubated anaerobically for 1 hour at 37° C. The reaction was terminated by addition of 1 ml of 6% potassium hydroxide in methanol (w/v). […] After reduction to […], cold lanosterol was added as carrier, and the extract was applied to a silica TLC plate. After development in methylene chloride, the spot corresponding to lanosterol was scraped off and counted for radioactivity. The I50 for each inhibitor was determined from a plot of radioactive lanosterol formed versus inhibitor concentration.
# SOC = settings: Duriatti et al. 1985; cited from earlier work
# [4] = system: cyclases of higher plants; settings: Duriatti et al. 1985; cited from earlier work
# [5] = system: cholesterol biosynthesis in rat liver enzyme preparations; settings: Nelson et al. 1978; cited from earlier work
# [6] = system: cholesterol biosynthesis in CHO cells; settings: Nelson et al. 1978; cited from earlier work
# [7] = incubation with rat liver homogenate; Nelson et al. 1978; cited from earlier work
# squalene oxide cyclase [8] = molecular target: T1, squalene oxide cyclase
# cholesterol synthesis = experiment: Inhibition of cholesterol synthesis
# fatty acid synthesis = experiment: Inhibition of fatty acid synthesis; settings: compared with its inhibition of cholesterol synthesis
# [9] = system: sterol synthesis in primary rat hepatocytes; experiment: Inhibition of sterol synthesis in primary rat hepatocytes ([3H]-acetate pulse, digitonide precipitation); format: cell-based
# Description: Primary rat hepatocytes (2.2×10^6 cells/60 mm plate) were incubated overnight with various concentrations of inhibitor. The cells are then pulsed for 1 hour with tritiated acetate, harvested by centrifugation and the lipids extracted (Bligh, E. G. and Dyer, W. J. Can. J. Biochem. Physiol. 1959, 37. 911-917). Polar lipid are separated from neutral lipids by silicic acid chromatography. The polar lipids are collected and counted for radioactive acetate incorporation, and used as control for total acetate metabolism. The neutral lipid fraction is saponified and sterols precipitated with digitonide. The digitonide precipitate is counted to measure total incorporation of radioactive acetate into sterols.
# lnhibition of sterol synthesis by PCR II-23 was determined as set forth in Example 1.
# lymphocytes = settings: in vivo; cited from earlier work
# [10] = inhibitor with suppressor 25-hydroxy-cholesterol (5 ug/ml), HDF 34 ± 3
# [11] = inhibitor with suppressor LDL (200 ug/ml), HDF 27 ± 2
# [12] = inhibitor with suppressor Mevalonate, HDF 19 ± 2
# [13] = suppressor: none, HDF control 88 ± 6
compound,measurement,setting,value
CCN(CC)CCO[C@H]1CC[C@@]2(C)C(=CC[C@@H]3[C@@H]2CC[C@]2(C)C(=O)CC[C@@H]32)C1 [U18666A],125I-LDL Binding,[1]; 5 ug/ml,160 ± 4 ng/mg cell protein
same,125I-LDL Internal,[1]; 5 ug/ml,1093 ± 17 ng/mg cell protein
same,125I-LDL Degradation,[1]; 5 ug/ml,682 ± 141 ng/mg cell protein
"CC1(C)[C@@H](O)CC[C@]2(C)CCCC[C@@H]12 (relative stereo) [TMD, 4, 4,10 beta-trimethyl-trans-decal-3beta-ol]",inhibition of SOC in vivo,squalene oxide cyclase [2],unexpectedly poor inhibitor of SOC
same,inhibition of squalene oxide cyclase in in vitro microsomal assays,squalene oxide cyclase [3],effective inhibitor of squalene oxide cyclase
same,IC50,squalene oxide cyclase [3],430 µM
same,type of inhibition of SOC,SOC,nonoompetitive inhibitors of SOC
same,effect on the cyclases of higher plants,[4],virtually no effect
same,inhibition of cholesterol biosynthesis,[5],specifically inhibited cholesterol biosynthesis
same,inhibition of cholesterol biosynthesis,[6],specifically inhibited cholesterol biosynthesis
same,major product of metabolism,[7],"4,4,10beta-trimethyl-trans-decalin-3beta, 7beta-diol was isolated as the major product of TMD metabolism"
same,inhibition of SOC in rat hepatocytes,squalene oxide cyclase [8],unexpectedly poor inhibitor of SOC
same,125I-LDL Binding,[1]; 20 ug/ml,130 ± 11 ng/mg cell protein
same,125I-LDL Internal,[1]; 20 ug/ml,891 ± 202 ng/mg cell protein
same,125I-LDL Degradation,[1]; 20 ug/ml,990 ± 71 ng/mg cell protein
"CC1(C)[C@@H](O)CC[C@]2(C)[C@@H](CO)CCC[C@@H]12 (relative stereo) [JW I-60, 4,4,10beta-trimethyl-9beta-hydroxymethyl-trans-decal-3beta-ol]",inhibition of cholesterol synthesis,cholesterol synthesis,weak inhibitor of cholesterol synthesis
same,inhibition of fatty acid synthesis,fatty acid synthesis,much more effective inhibitor of fatty acid synthesis
"CC1(C)[C@@H](O)CC[C@]2(C)CCC3(CC3)C[C@@H]12 (relative stereo) [PCR II-8B, (4,4,10beta-trimethyl-trans-decal-3 beta-ol)--7-spiro-1'-cyclopropane]",sterol biosynthesis by primary rat hepatocytes,[9]; 50 ug/ml,no detectable sterol biosynthesis
same,IC50,squalene oxide cyclase [3],80 µM
same,effectiveness as SOC inhibitor relative to TMD,squalene oxide cyclase [3],~5.4 times
same,LDL BINDING,[1]; [10],69 ± 4 ng/mg cell protein
same,LDL BINDING,[1]; [11],39 ± 4 ng/mg cell protein
same,LDL BINDING,[1]; [12],176 ± 17 ng/mg cell protein
same,LDL BINDING,[1]; [13],278 ± 3 ng/mg cell protein
CC[C@H](C)C(=O)O[C@H]1C[C@@H](C)C=C2C=C[C@H](C)[C@H](CC[C@@H]3C[C@@H](O)CC(=O)O3)[C@H]21 [Mevinolin],defects in glycosylation of proteins in lymphocytes,lymphocytes,defects in the glycosylation of proteins in lymphocytes which can persist for ten months after administration
same,up regulation of LDL receptors in HepG2 cells,[1]; culture medium free of sterol supplements (HDF),equally effective in up regulation of LDL receptors
same,LDL BINDING,[1]; [10],3 ± 2 ng/mg cell protein
same,LDL BINDING,[1]; [11],38 ± 3 ng/mg cell protein
same,LDL BINDING,[1]; [12],35 ± 2 ng/mg cell protein
same,LDL BINDING,[1]; [13],213 ± 4 ng/mg cell protein
"CC1(C)[C@@H](O)CC[C@]2(C)CCC(F)(F)C[C@@H]12 (relative stereo) [LN I-83, 4,4,10 beta-Trimethyl-7,7-difluoro-trans-decal-3beta-ol]",IC50,squalene oxide cyclase [3],430 µM
same,125I-LDL Binding,[1]; 20 ug/ml,105 ± 12 ng/mg cell protein
same,125I-LDL Internal,[1]; 20 ug/ml,687 ± 152 ng/mg cell protein
same,125I-LDL Degradation,[1]; 20 ug/ml,864 ± 47 ng/mg cell protein
CC(O)(CCO)CC(=O)O (stereo not drawn) [Mevalonate],LDL BINDING,"[1]; suppressor alone in HDF, no suppressor 88 ± 6",19 ± 2 ng/mg cell protein
"C[C@@H]1[C@@H](O)CC[C@]2(C)CCCC[C@@H]12 (relative stereo) [4,10 beta-dimethyl analogue]",type of inhibition of SOC,SOC,nonoompetitive inhibitors of SOC
same,effect on the cyclases of higher plants,[4],virtually no effect
"CC1(C)CC[C@@]2(C)CC[C@H](O)C(C)(C)[C@@H]2C1 (relative stereo) [PCR II-23, 4,4,7,7, 10beta-Pentamethvl-trans-decal-3beta-ol]",IC50,squalene oxide cyclase [3],160 µM
same,effectiveness as SOC inhibitor relative to TMD,squalene oxide cyclase [3],about 2.7 times
same,LDL BINDING,[1]; [10],117 ± 11 ng/mg cell protein
same,LDL BINDING,[1]; [11],36 ± 2 ng/mg cell protein
same,LDL BINDING,[1]; [12],196 ± 30 ng/mg cell protein
same,LDL BINDING,[1]; [13],281 ± 18 ng/mg cell protein
C[C@H](CCCC(C)(C)O)[C@H]1CC[C@H]2[C@@H]3CC=C4C[C@@H](O)CC[C@]4(C)[C@H]3CC[C@]12C [25-hydroxy-cholesterol],LDL BINDING,"[1]; suppressor alone in HDF, 5 ug/ml, no suppressor 88 ± 6",34 ± 3 ng/mg cell protein
"CC1(C)NCC[C@]2(C)CCCC[C@@H]12 (relative stereo) [LA-I-140, 4,4,10-trimethyl-trans-3-azadecalin]",IC50,"[9]; Hepatocyte, primary rat hepatocytes, overnight incubation, read-out: concentration reducing sterol synthesis to one-half of normal levels",40 µg/mL
same,125I-LDL Binding,[1]; 20 ug/ml,75 ± 3 ng/mg cell protein
same,125I-LDL Internal,[1]; 20 ug/ml,642 ± 96 ng/mg cell protein
same,125I-LDL Degradation,[1]; 20 ug/ml,408 ± 61 ng/mg cell protein
